Data reported in US20030109462A1, “Novel naringenin derivatives and use thereof” (Japan Science and Technology Corporation, priority 2001, published 2003).
“Also recorded” adds a separate entry of the source.

Legend:
[1] = system: cowpea weevil (C. maculatus); assay: Insecticidal test on artificial beans, cowpea weevil; type: in vivo, Callosobruchus maculatus; conditions: cowpea weevils
Protocol: (§1) These two species of bean weevils were cultured in the same way. In a 9 cm Petri dish containing 300 mungbean seeds, was placed ten adults of bean weevil and egg production was induced. After egg production, the adults were removed and cultured in a thermostatically controlled incubator at 60% humidity and 30° C. After 25 to 30 days from the egg production, the adults emerged. The emerged adults were used in the test for insecticidal activity.
To 1 g of the cotyledon powder of mungbean was added a small quantity of water to make bean-like solid material (about 0.25 g), which was freeze-dried. This material was called artificial bean (mungbean 100%) and used in the test. […]
One artificial seed each of artificial beans in this test was placed in a 9 cm Petri dish, on which the adults of azuki bean weevils or cowpea weevils shortly after the emergence were put and induced to lay eggs. […] The number of eggs laid on the artificial beans was recorded, and the number of the adults that emerged from the artificial beans was continuously recorded for up to 50 days after the egg production to calculate the rate of emergence. The artificial beans on which no emergence was recorded by the 50th day after eggs were laid were split with a pair of forceps and checked as to whether there was any larvae in the artificial seed. […]

[2] = system: two species of bean weevils: azuki bean weevil (Callosobruchus chinensis) and cowpea weevil (C. maculatus); assay: Insecticidal test on artificial beans, one result stated for both bean weevil species; type: in vivo
Protocol: Two species of bean weevils, i.e., azuki bean weevil (Callosobruchus chinensis) and cowpea weevil (C. maculatus) were employed. Cowpea weevil was obtained from Kasetsart University, Thailand, under an import license from the Plant Quarantine Office of Japan and subcultured.
as §1
(§2) To 1 g of the cotyledon powder of mungbean was added a small quantity of water to make bean-like solid material (about 0.25 g), which was freeze-dried. This material was called artificial bean (mungbean 100%) and used in the test.
(§3) The artificial beans (mungbean 100%) were placed in a 9 cm Petri dish, on which was then put the adults shortly after their emergence and eggs were laid on the artificial seeds. The culture environment was fixed at a temperature of 30° C. and a humidity of 60%. After a lapse of 25 to 30 days from the egg production, the adults normally emerged from the artificial beans (mungbean 100%). Thus, it became clear that the bean weevils can utilize the artificial beans for their egg production and emergence, and it was confirmed that the artificial beans are useful in a test of insecticidal activity for bean weevils.
(§4) One artificial seed each of artificial beans in this test was placed in a 9 cm Petri dish, on which the adults of azuki bean weevils or cowpea weevils shortly after the emergence were put and induced to lay eggs. After egg production, the adults were cultured in an incubator fixed at 30° C. and 60% humidity. The number of eggs laid on the artificial beans was recorded, and the number of the adults that emerged from the artificial beans was continuously recorded for up to 50 days after the egg production to calculate the rate of emergence. The artificial beans on which no emergence was recorded by the 50th day after eggs were laid were split with a pair of forceps and checked as to whether there was any larvae in the artificial seed. This experiment, the insecticidal test on the artificial beans, was repeated 4 times.
(§5) The value represented by the weight (g) of the artificial beans which can be prepared from the total weight of rice bean seed powder according to the minimum lethal concentration was regarded as the total activity of the rice bean seed powder. (The value derived by dividing the total weight of rice bean seed powder by the minimum lethal concentration)
(§6) Moreover, the total activity for 1 g of the rice bean seed powder was calculated as specific activity (units/g).
(§7) Insecticidal activity was observed by calculating total activity and specific activity under the same conditions and following the same procedure as in Experiment 1, except that the extract obtained in each step of purification was used in place of the seed powder of rice bean.

[3] = system: larva of giant tobacco budworm (Heliothis obsoleta Fabricius); conditions: cited from earlier work
[4] = system: azuki bean weevil (Callosobruchus chinensis); assay: Insecticidal test on artificial beans, azuki bean weevil; type: in vivo
Protocol: as §1, §2, §3, §4, §5, §6, §7

[5] = Table 2, purification without silica gel, two species of bean weevils
[6] = Table 1, steps from silica gel chromatography on, activity to azuki bean weevils

Row | SMILES | insecticidal activity (in words) [1] | Specific activity [2, 5] | Total activity [2, 5] | rate of emergence ([2]; artificial beans containing 0.05%, 0.1%, or 0.2% of the 5th peak, both species) | rate of emergence ([2]; artificial beans containing 0.1% of the 5th peak, two species) | rate of emergence ([2]; artificial beans containing 0.2% of the 5th peak, two species) | insecticidal activity (in words) ([2]; azuki bean weevils and cowpea weevils) | minimum lethal concentration ([2]; concentration in artificial beans required for emergence rate 0%, both weevil species) | insecticidal effect (in words) [3] | Specific activity [4, 6] | Total activity [4, 6] | rate of emergence ([4]; artificial beans containing 0.05%, 0.1%, or 0.2% of the 7th peak, azuki bean weevils) | rate of emergence ([4]; artificial beans containing 0.1% of the 7th peak) | rate of emergence ([4]; artificial beans containing 0.2% of the 7th peak) | insecticidal activity (in words) ([4]; azuki bean weevils) | minimum lethal concentration ([4]; concentration in artificial beans required for emergence rate 0%, azuki bean weevils)
1 | O=C1C[C@H](c2ccc(O)cc2)Oc2cc(O)c([C@@H]3O[C@H](CO)[C@@H](O)[C@H](O)[C@H]3O)c(O)c21 [6-C-β-D-glucosyl-(R)-naringenin] | insecticidally active | 1000.0 units/g | 8.0 units | low | 0% | 0% | insecticidal substance active to azuki bean weevils and cowpea weevils | 0.1% | – | – | – | – | – | – | – | –
2 | O=c1cc(-c2ccc(O)c(O)c2)oc2cc(O)c([C@@H]3O[C@H](CO)[C@@H](O)[C@H](O)[C@H]3O)c(O)c12 [6-C-β-D-glucosyl-luteolin] | – | – | – | – | – | – | – | – | insecticidal effect | – | – | – | – | – | – | –
3 | O=C1C[C@H](c2ccc(O)cc2)Oc2c1c(O)cc(O)c2[C@@H]1O[C@H](CO)[C@@H](O)[C@H](O)[C@H]1O [8-C-β-D-glucosyl-(R)-naringenin] | only to azuki bean weevils | – | – | – | – | – | – | – | – | 1000.0 units/g | 2.0 units | low | 0% | 0% | insecticidal substance active to azuki bean weevils; also recorded: shows insecticidal activity | 0.1%
